The compounds below were run against DCN1-UBC12 interaction (Homo sapiens (Human), UniProt Q96GG9) (assay: biochemical). Conditions: TR-FRET IC50.
Type: binding

Chain of DCN1-UBC12 interaction (Q96GG9 60-248 limits assumed): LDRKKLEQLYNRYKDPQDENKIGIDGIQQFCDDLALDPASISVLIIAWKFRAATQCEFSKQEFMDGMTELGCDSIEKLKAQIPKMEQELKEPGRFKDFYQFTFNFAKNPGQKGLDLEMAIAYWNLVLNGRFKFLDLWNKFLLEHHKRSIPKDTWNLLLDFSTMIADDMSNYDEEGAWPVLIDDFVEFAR

Compound | IC50
CCCC(C)N1CCC(N(Cc2ccccc2)C(=O)Nc2cccc(Cl)c2)CC1 (centres unmarked) [A35] | 0.203 µM
CCCC(C)N1CCC(N(Cc2ccccc2)C(=O)Nc2ccc(C(F)(F)F)nc2C)CC1 (centres unmarked) [A178] | 15.8 µM

Same assay, conditions: Table 4, commercial compounds; read-out: TR-FRET IC50

Compound | IC50
COc1cc(C(=O)N2CCC(C(=O)Nc3ccc(Br)cc3)CC2)cc(OC)c1OC [C24] | > 67.6 µM
CC(=O)Nc1ccc(NC(=O)C2CCN(C(=O)c3cccs3)CC2)cc1 [C35] | > 67.6 µM
O=C(Nc1ccc(F)c(Cl)c1)C1CCN(C(=O)c2ccc(Br)cc2)CC1 [C70] | > 83.8 µM
CSc1cccc(NC(=O)C2CCN(C(=O)c3ccccc3C)CC2)c1 [C5] | 30.1 µM
Cc1ccccc1C(=O)N1CCC(C(=O)Nc2c(F)cccc2F)CC1 [C36] | > 67.6 µM
COc1cccc(NC(=O)C2CCN(C(=O)c3cnn(-c4ccccc4)c3-n3cccc3)CC2)c1 [C8] | > 67.6 µM
COc1ccc(C(=O)N2CCC(C(=O)Nc3cccc(C(F)(F)F)c3)CC2)cc1 [C1, 1-(4-Methoxybenzoyl)-N-(3-(Trifluoromethyl)Phenyl)Piperidine-4-Carboxamide] | 8.07 µM
O=C(Nc1cccc(C(F)(F)F)c1)C1CCN(C(=O)/C=C/c2ccccc2)CC1 [C57] | > 67.6 µM
CCC1CN(C(=O)N2CCC(C(=O)Nc3cccc(OC)c3)CC2)c2ccccc2O1 (centres unmarked) [C54] | > 67.6 µM

Same assay, conditions: Table 6, commercial compounds; read-out: TR-FRET IC50

Compound | IC50
COCCN1CCN(C(=O)c2cnn(-c3nccc(-c4cc(C)sc4C)n3)c2COC)CC1 [E8] | 22.8 µM
CCCN1CCN(C(=O)c2cnn(-c3nccc(-c4cccs4)n3)c2C2CC2)CC1 [E58] | > 67.6 µM
CC(=O)N1CCN(C(=O)c2cnn(-c3nccc(-c4cccs4)n3)c2C2CC2)CC1 [E24] | 61.6 µM
CCN(CC)CCNC(=O)c1cnn(-c2nccc(-c3cccs3)n2)c1COC [E31] | > 67.6 µM

Same assay, conditions: Table 7, commercial compounds; read-out: TR-FRET IC50

Compound | IC50
COc1cccc(C2c3c(C)nn(C)c3NC(=O)C2NC(=O)c2ccc(OC)c(OC)c2)c1 (centres unmarked) [F21] | > 67.6 µM
Cc1cccc(C(=O)NC2C(=O)Nc3c(c(C)nn3-c3ccccc3)C2c2ccc(C#N)cc2)c1 (centres unmarked) [F5] | 35.1 µM
Cc1nn(C)c2c1C(c1cccc(F)c1)C(NC(=O)c1ccc(Cl)cc1)C(=O)N2 (centres unmarked) [F10] | > 67.6 µM
Cc1cccc(C(=O)NC2C(=O)Nc3c(c(C)nn3C)C2c2ccc(F)c(Br)c2)c1 (centres unmarked) [F17] | > 67.6 µM
Cc1cccc(C(=O)NC2C(=O)Nc3c(c(C)nn3C)C2c2cccc(F)c2)c1 (centres unmarked) [F15] | > 67.6 µM
COc1ccc(C2c3c(C)nn(C)c3NC(=O)C2NC(=O)c2ccc(Cl)cc2)cc1F (centres unmarked) [F31] | > 67.6 µM
Cc1nn(C)c2c1C(c1ccc(Br)cc1)C(NC(=O)c1ccc(Cl)cc1)C(=O)N2 (centres unmarked) [F12] | > 67.6 µM

Same assay, conditions: read-out: TR-FRET IC50

Compound | IC50
CCCC(C)N1CCC(N(Cc2ccccc2)C(=O)Nc2cccc(C(C)(C)C)c2)CC1 (centres unmarked) [A140] | 4.2 µM
O=C(Nc1cccc(I)c1)NC1CCN(Cc2ccccc2)CC1 [B98] | > 67.6 µM
CCN1CCC(N(Cc2ccco2)C(=O)Nc2ccc(C)c(F)c2)CC1 [B11] | 23.8 µM
CCc1ccccc1NC(=O)NC1CCN(Cc2ccccc2)CC1 [B53] | > 67.6 µM
O=C(Nc1cc(F)cc(C(F)(F)F)c1)N(Cc1ccccc1)C1CCN(C/C=C/c2ccccc2)CC1 [A143] | 4.27 µM
CCCC(C)N1CCC(N(Cc2ccccc2)C(=O)Nc2cc(OC)ccc2Cl)CC1 (centres unmarked) [A288] | > 72.9 µM
CCCC(C)N1CCC(N(Cc2ccccc2)C(=O)Nc2ccc(F)c(F)c2F)CC1 (centres unmarked) [A286] | > 72.4 µM
CCCC(C)N1CCC(N(Cc2ccccc2)C(=O)Nc2ccc(I)cc2)CC1 (centres unmarked) [A4] | 0.035 µM
CCCC(C)N1CCC(N(Cc2ccccc2)C(=O)Nc2ccc(Cl)nc2)CC1 (centres unmarked) [A277] | > 68.8 µM
CCCC(C)N1CCC(N(Cc2ccccc2)C(=O)Nc2ccc3ncccc3c2)CC1 (centres unmarked) [A207] | > 21 µM
CCCN1CCC(N(CCC)C(=O)Nc2cccc(C(F)(F)F)c2)CC1 [A167, 1-Propyl-1-(1-Propylpiperidin-4-yl)-3-(3-(Trifluoromethyl)Phenyl)Urea] | 10.5 µM
CCCC(C)N1CCC(N(Cc2ccccc2)C(=O)Nc2c(OC)cccc2OC)CC1 (centres unmarked) [A299] | > 85.7 µM
CCCCN(C(=O)Nc1cc(F)cc(C(F)(F)F)c1)C1CCN(C(C)CCC)CC1 (centres unmarked) [A84] | 0.917 µM
CCCC(C)N1CCC(N(Cc2ccccc2)C(=O)Nc2ccc(-c3ccc(OC)cc3)cc2)CC1 (centres unmarked) [A164] | 8.9 µM
COc1cccc(CN2CCC(N(Cc3ccccc3)C(=O)Nc3cc(F)cc(C(F)(F)F)c3)CC2)c1 [A231] | > 28.9 µM
Cc1ccc2[nH]c(C3CCN(Cc4cccc(C(F)(F)F)c4)CC3)nc2c1 [B19] | < 0.004 µM
O=C(Nc1ccc2c(c1)C(=O)NCC2)NC1CCN(Cc2ccccc2)CC1 [B122] | > 84.8 µM
COc1cc(OC)cc(C(=O)N2CCCC(c3nc4ccccc4s3)C2)c1 (centres unmarked) [D30] | > 67.6 µM
CCCC(C)N1CCC(N(Cc2ccccc2)C(=O)Nc2ccc(C(F)(F)F)cc2[NH2+][O-])CC1 (centres unmarked) [A174] | 13.2 µM
CCN1CCC(N(Cc2ccco2)C(=O)Nc2cccc(C(F)(F)F)c2)CC1 [B3] | 3.85 µM
CCCC(C)N1CCC(N(Cc2ccccc2)C(=O)Nc2cc(F)ccc2Cl)CC1 (centres unmarked) [A169] | 11 µM
O=C(Nc1cccc(C(F)(F)F)c1)N1CCN(Cc2cccnc2)CC1 [B116] | > 74.8 µM

Compound | IC50
COc1ccc(CN(C(=O)Nc2ccc(C)cc2)C2CCN(C(C)=O)CC2)cc1 [B83] | > 67.6 µM
CCCN1CCC(N(CC(C)C)C(=O)Nc2cccc(C(F)(F)F)c2)CC1 [A146, 1-Isobutyl-1-(1-Propylpiperidin-4-yl)-3-(3-(Trifluoromethyl)Phenyl)Urea] | 4.81 µM
CC(c1ccccn1)N1CCC(N(Cc2ccccc2)C(=O)Nc2cc(F)cc(C(F)(F)F)c2)CC1 (centres unmarked) [A145] | 4.57 µM
C=CC(=O)NCCN(C(=O)Nc1cccc(C(F)(F)F)c1)C1CCN(C(C)CCC)CC1 (centres unmarked) [A187] | 33.8 µM
C=CS(=O)(=O)NCc1cccc(CN(C(=O)Nc2cccc(C(F)(F)F)c2)C2CCN(C(C)CCC)CC2)c1 (centres unmarked) [A1] | 0.0043 µM
O=C(Nc1ccc2c(c1)OC(F)(F)O2)NC1CCN(C(=O)c2ccccc2)CC1 [B114] | > 74.1 µM
O=C(Nc1cccc(C(F)(F)F)c1)N(Cc1ccccc1)C1CC2CCC(C1)N2Cc1ccccc1 (centres unmarked) [A105] | 1.87 µM
Cn1cncc1CN1CCC(N(Cc2ccccc2)C(=O)Nc2cc(F)cc(C(F)(F)F)c2)CC1 [A221] | > 24.8 µM
C=CS(=O)(=O)NCCN(C(=O)Nc1cccc(C(F)(F)F)c1)C1CCN(C(C)CCC)CC1 (centres unmarked) [drawing 839] | > 41 µM
O=C(c1cccc(Br)c1)N1CCC(c2nc3cc(Cl)ccc3s2)CC1 [D18] | > 60.8 µM
CC(=O)N1CCC(N(Cc2ccco2)C(=O)Nc2cccc(C)c2)CC1 [B72] | > 67.6 µM
CCCC(C)N1CCC(N(Cc2ccccc2)C(=O)Nc2cccc(C)c2C)CC1 (centres unmarked) [A271] | > 67.5 µM
CCCC(C)N1CCC(N(Cc2ccccc2)C(=O)Nc2cccc(F)c2C)CC1 (centres unmarked) [A151] | 5.66 µM
O=C(Nc1cc(C(F)(F)F)ccc1Cl)NC1CCN(Cc2ccccc2)CC1 [B101] | > 69.8 µM
O=C(Nc1cc(F)cc(C(F)(F)F)c1)N(Cc1ccccc1)C1CCN(Cc2cccc(N3CCCC3)c2)CC1 [A202] | > 19.4 µM
1-Benzyl-1-(1-(4-Fluorobenzyl)Piperidin-4-yl)-3-(3-(Trifluoromethyl)Phenyl)Urea [A171] | 12.7 µM
CCCC(C)N1CCC(N(Cc2ccccc2)C(=O)Nc2cccc3cccnc23)CC1 (centres unmarked) [A139] | 4.13 µM
CCCC(C)N1CCC(N(Cc2ccccc2)C(=O)Nc2ccc(CN3CCCC3)cc2)CC1 (centres unmarked) [A247] | > 58.5 µM
CCCCCN1CCC(N(Cc2ccccc2)C(=O)Nc2cc(F)cc(C(F)(F)F)c2)CC1 [A124] | 1.59 µM
CCCC(C)N1CCC(N(Cc2ccccc2)C(=O)Nc2cc(OC)c(OC)c(OC)c2)CC1 (centres unmarked) [A246] | > 55.6 µM
CCCC(C)N1CCC(N(Cc2ccccc2)C(=O)Nc2cccc(OC(C)C)c2)CC1 (centres unmarked) [A132] | 3.17 µM
O=C(c1ccc(Br)cc1)N1CCC(c2nc3ccccc3s2)CC1 [D9] | 21.8 µM

Compound | IC50
CCCCN1CCC(N(Cc2ccccc2)C(=O)Nc2ccc(F)c(C(F)(F)F)c2)CC1 [A26] | 0.163 µM
CCCC(C)N1CCC(N(Cc2ccccc2)C(=O)Nc2ccccc2CC)CC1 (centres unmarked) [A270] | > 67.3 µM
O=C(Nc1ccccc1)NC1CCN(Cc2ccccc2)CC1 [B20, 1-(1-Benzylpiperidin-4-yl)-3-Phenylurea] | < 0.0041 µM
O=C(Nc1cc(F)cc(C(F)(F)F)c1)N(Cc1ccccc1)C1CCN(Cc2cccc(Oc3ccccc3)c2)CC1 [A217] | > 23.9 µM
CCCN1CCC(NC(=O)Nc2ccc(Cl)cc2Cl)CC1 [B14] | 43 µM
CCCC(C)N1CCC(N(CCNC(=O)CCl)C(=O)Nc2cccc(C(F)(F)F)c2)CC1 (centres unmarked) [drawing 837] | > 60 µM
1-(1-Acryloylpiperidin-4-yl)-1-Benzyl-3-(3-(Trifluoromethyl)Phenyl)Urea [A65] | 0.446 µM
CN(C)c1ccc(CN2CCC(N(Cc3ccccc3)C(=O)Nc3cc(F)cc(C(F)(F)F)c3)CC2)c2ccccc12 [A204] | > 20.2 µM
COc1ccccc1NC(=O)N(Cc1ccc(C)o1)C1CCN(Cc2ccccc2)CC1 [B90] | > 67.6 µM
CCCCN1C(C)(C)CC(N(Cc2ccccc2)C(=O)Nc2cccc(C(F)(F)F)c2)CC1(C)C [A188] | 34.3 µM
O=C(Nc1cc(F)cc(C(F)(F)F)c1)N(Cc1ccccc1)C1CCN(Cc2nc3ccccc3s2)CC1 [A222] | > 25.2 µM
Cc1cc(NC(=O)NC2C(C)CN(Cc3ccccc3)CC2C)no1 (centres unmarked) [B121] | > 81.9 µM
CC1CC(NC(=O)NC2CCCNC2=O)CCN1Cc1ccccc1 (centres unmarked) [B36] | > 57.8 µM
O=C(c1ccc(Cl)cc1)N1CCC(c2nc3ccccc3s2)CC1 [D20] | > 67.3 µM
CC(c1ccc(Cl)cc1)N1CCC(N(Cc2ccccc2)C(=O)Nc2cc(F)cc(C(F)(F)F)c2)CC1 (centres unmarked) [A216] | > 23.8 µM
O=C(Nc1ccncc1[NH2+][O-])NC1CCN(Cc2ccccc2)CC1 [B120] | > 79.1 µM
CCCC(C)N1CCC(N(Cc2ccccc2)C(=O)Nc2ccc(NC(C)=O)cc2)CC1 (centres unmarked) [A291] | > 77.1 µM
CCCCN1CCC(N(Cc2ccccc2)C(=O)Nc2cccc(F)c2)CC1 [A136] | 3.57 µM
1-Benzyl-1-(1-Isopentylpiperidin-4-yl)-3-(3-(Trifluoromethyl)Phenyl)Urea [A90] | 1.13 µM
CCCC(C)N1CCC(N(Cc2ccccc2)C(=O)Nc2ccc(OC)c(Cl)c2)CC1 (centres unmarked) [A138] | 4.05 µM

— patent US11116757B2 (priority 2015, dated 2021)
